Experimental data as given in patent US11512268B2, “Storage-stable enzyme preparations, their production and use” (BASF SE, priority 2017, dated 2022).

Key:
Savinase = molecular target: T1, Savinase (Lederbergia lenta, UniProt P29600); test: storage stability of protease (Savinase activity, Suc-AAPF-pNA substrate) in liquid formulations at 37° C.; format: biochemical; details: base formulation III., component (a) 2.5 wt %, Savinase 16.0 L 0.5 wt %, storage at 37° C.
T1 construct: purchased Sigma-Aldrich
T1 sequence (P29600 1-269): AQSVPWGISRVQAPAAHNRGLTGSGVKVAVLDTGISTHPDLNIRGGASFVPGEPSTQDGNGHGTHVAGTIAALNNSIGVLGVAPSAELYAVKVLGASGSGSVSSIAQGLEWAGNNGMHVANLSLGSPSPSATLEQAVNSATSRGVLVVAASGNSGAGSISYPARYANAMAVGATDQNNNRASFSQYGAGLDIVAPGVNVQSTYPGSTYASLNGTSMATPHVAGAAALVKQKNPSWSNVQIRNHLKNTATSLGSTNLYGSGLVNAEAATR
Method: (§1) The storage stability of Lipase and Protease in water was assessed at 37° C.
(§2) Base test formulations were manufactured by making base formulations I to VI by mixing the components according to Table 1.
(§3) The respective salt (component (a)) or comparative compound was added, if applicable, to the respective base formulation in amounts as indicated in Table 1.
(§4) The amount of enzyme as provided in Table 1 refers to active protein. Either lipase or protease was added, depending on which enzyme activity was measured.
(§5) Lipolase® 100 L (CAS-No. 9001-62-1, EC-No. 232-619-9) was purchased from Sigma-Aldrich. Savinase® 16.0 L (CAS-No. 9014-01-1, EC-No. 232-752-2) was purchased from Sigma-Aldrich.
Savinase activity at certain points in time as indicated in Table 3 was be determined by employing Succinyl-Ala-Ala-Pro-Phe-p-nitroanilide (Suc-AAPF-pNA, short AAPF) as substrate. pNA is cleaved from the substrate molecule by proteolytic cleavage, resulting in release of yellow color of free pNA which was determined by measuring OD405. Measurement were done at 20° C.
The proteolytic activity values provided in Table 3 were calculated referring to the 100% value determined in the reference formulation at the time 0.
(§6) The nomenclature of formulations is as follows: the Roman number before the full stop characterizes the base formulation, the Arabian number the type of salt (A.# inventive salt (component (a)); C-(A.#) comparative compound). Zero (“0”): no salt, but diethylene glycol.

Lipolase = molecular target: T2, Lipolase (Thermomyces lanuginosus, UniProt O59952); test: storage stability of lipase (Lipolase activity, pNitrophenol-valerate substrate) in liquid formulations at 37° C.; format: biochemical, Thermomyces lanuginosa; details: component (a) 2.5 wt %, Lipolase 0.4 wt %, storage at 37° C.
T2 construct: purchased Sigma-Aldrich
T2 sequence (O59952 23-291): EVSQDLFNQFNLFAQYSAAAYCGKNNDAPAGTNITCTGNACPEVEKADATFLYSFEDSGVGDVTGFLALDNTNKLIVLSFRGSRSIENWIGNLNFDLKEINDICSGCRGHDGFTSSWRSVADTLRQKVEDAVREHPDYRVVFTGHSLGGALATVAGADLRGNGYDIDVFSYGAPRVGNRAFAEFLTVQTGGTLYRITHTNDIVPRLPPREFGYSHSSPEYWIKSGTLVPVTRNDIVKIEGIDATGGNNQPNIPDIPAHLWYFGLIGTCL
Method: as §1, §2, §3, §4, §5
Lipolase activity at certain points in time as indicated in Table 2 was be determined by employing pNitrophenol-valerate (2.4 mM pNP-C5 in 100 mM Tris pH 8.0, 0.01% Triton X100) as a substrate. The absorption was measured at 20° C. every 30 seconds over 5 minutes at 405 nm. The slope (absorbance increase at 405 nm per minute) of the time dependent absorption-curve is directly proportional to the activity of the lipase.
The lipolytic activity values provided in Table 2 were calculated referring to the 100% value determined in the reference formulation at the time 0.
as §6

SMILES	lipase activity (Lipolase; base formulation II., 1 d) [%]	lipase activity (Lipolase; base formulation II., 3 d) [%]	lipase activity (Lipolase; base formulation II., 6 d) [%]	lipase activity (Lipolase; base formulation II., 10 d) [%]	lipase activity (Lipolase; base formulation II., 15 d) [%]	lipase activity (Lipolase; base formulation II., 20 d) [%]	lipase activity (Lipolase; base formulation II., 25 d) [%]	lipase activity (Lipolase; base formulation II., 30 d) [%]	lipase activity (Lipolase; base formulation III., 1 d) [%]	lipase activity (Lipolase; base formulation III., 3 d) [%]	lipase activity (Lipolase; base formulation III., 6 d) [%]	lipase activity (Lipolase; base formulation III., 10 d) [%]	lipase activity (Lipolase; base formulation III., 15 d) [%]	lipase activity (Lipolase; base formulation III., 20 d) [%]	lipase activity (Lipolase; base formulation III., 25 d) [%]	lipase activity (Lipolase; base formulation III., 30 d) [%]	lipase activity (Lipolase; base formulation III., T0) [%]	further results
CC(=O)OCC[N+](C)(C)C [(A.12), Acetylcholine]	98	96	95	88	86	80	77	76	98	97	95	91	86	80	78	74		protease activity (Savinase; 1 d): 96%; protease activity (Savinase; 3 d): 92%; protease activity (Savinase; 6 d): 80%; protease activity (Savinase; 10 d): 70%; protease activity (Savinase; 15 d): 61%; protease activity (Savinase; 20 d): 50%; protease activity (Savinase; 25 d): 39%; protease activity (Savinase; 30 d): 31%; protease activity (Savinase; T0): 96%
O=C([O-])CC(O)(CC(=O)[O-])C(=O)O.[Na+].[Na+] [C-(A.21), disodium salt of citric acid]									93	78	68	50	39	31	25	20	101	
O=C([O-])CC(O)(CC(=O)O)C(=O)O.[Na+] [C-(A.20), monosodium salt of citric acid]									92	79	70	51	39	30	22	16	100	
O=C([O-])CC(O)(CC(=O)[O-])C(=O)[O-].[Na+].[Na+].[Na+] [C-(A.22), trisodium salt of citric acid]	87	79	67	55	40	33	24	18	92	76	66	48	37	28	23	19	98	lipase activity (Lipolase; base formulation II., T0): 95%
